Where “and” joins values, the source holds several entries; their conditions need not be identical. Equal entries are not always repeated.

The experiment concerns C. albicans ISS 1. The experiment can be described thus: Experimental subcutaneous infection with Candida albicans in mice. In kind it is in vivo, Candida albicans in mice (male CD1 outbred). Conditions: individual samples 1-4; 50 mcg s.c. at 0, 48 and 96 hours (150 total mcg per animal). On the procedure:
Male CD1 outbred mice (IFFA Credo) aged 8 weeks were used (4 animals per group).
A pathogenic strain of Candida was used, namely C. albicans ISS 1.
The infected animals were treated with ST 722 dissolved in saline, and Miconazole diluted in saline from a stock solution containing 1% Dimethyl Formamide.
From an overnight broth culture of C. albicans in Sabouraud broth, a fungal suspension was prepared in sterile saline containing 5.0×10^5 cells/mi. An inoculum of 0.5 ml of this suspension was injected subcutaneously into the abdominal wall of each animal.
The compounds were then administered by subcutaneous injection in the same area of the fungal challenge at the dose of 50 mcg (in 0.2 ml of saline) immediately after the inoculum and following 48 and 96 hours (150 total mcg per animal).
Then, 48 hours following the last treatment (6 days after the challenge with Candida), the animals were sacrificed, and the abdominal wall as well as the peritoneum were dissected out.
The excised tissues were then homogenized in 5 ml of sterile saline with a Potter-Elvehjem tissue grinder. The resulting suspensions, appropriately diluted, where plated onto Petri dishes containing a selective agar medium (BIGGY agar), which allows to easily detect the yeast Colony Forming Units (CFU/ml).
The number of colonies scored in a series of dilutions for each single sample consents to calculate the number of yeast cells present in the infected tissue sample as follows: [formula] Where Zi is the number of dilutions performed, Ni is the number of plates prepared for each dilution, and Ci is the total number of yeast cells scored in each dilution.

For the compound `Clc1ccc(COC(Cn2ccnc2)c2ccc(Cl)cc2Cl)c(Cl)c1` (stereo not shown) [Miconazole, reference compound], the CFU/mouse entry is “sterile and 3.60 × 10^1 CFU/mouse and 8.10 × 10^1 CFU/mouse”.
